{"source": "patent US20120282652A1", "about": "“PREPARATION OF PEPTIDE MIXTURES BY PROTEASE CATALYSIS DESIGNED TO PROVIDE USEFUL BIOLOGICAL AND PHYSICAL PROPERTIES” (priority 2011, published 2012)", "origin": "cited, not measured here", "key": {"[1]": {"system": "S. aureus, E. coli, and P. aeruginosa", "details": "peptide synthesized by traditional chemical methods"}, "[2]": {"details": "Cheng et al."}}, "data": [{"substance": "[γ-Glu-Cys]2-Gly", "values": [{"measurement": "Cd(II) at which binding saturated", "setting": "absorbance at 240 nm, Mehra", "value": 0.5, "unit": "equivalents"}, {"measurement": "Cd(II)/peptide ratio up to which absorption intensity is enhanced", "setting": "absorption at 250 nm, Kobayashi and Yoshimura", "value": "≤ 1.4"}]}, {"substance": "LKLLKKLLKKLKKLLKKL [amphipathic model peptide synthesized by traditional chemical methods]", "values": [{"measurement": "antimicrobial activity compared with diblock KKKKKKKKKLLLLLLLLL or alternating KLKLKLKLKLKLKLKLKL", "setting": "[1]", "value": "better antimicrobial activity"}]}, {"substance": "[γ-Glu-Cys]4-Gly [[(γ-EC)4]-Gly]", "values": [{"measurement": "order of binding efficiency of the metals", "setting": "[2]", "value": "Cd>Zn>Ni>Co"}]}]}
